Measured values from PubChem BioAssay (NCI).
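Following 48 hours of exposure in 96-well plates, responses at five concentrations were used to interpolate endpoints linearly. At the GI50, growth is halved. At the TGI there is no net growth.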

Assays:
Experiment in all cases: DTP human tumour cell line panel, 48 h
[1] = test system: SNB-75 CNS
[2] = test system: HOP-92 NSCLC
[3] = test system: EKVX NSCLC
[4] = test system: HCC-2998 colon
[5] = test system: U251 CNS
[6] = test system: CCRF-CEM leukemia
[7] = test system: LOX IMVI melanoma
[8] = test system: K-562 leukemia
[9] = test system: SK-MEL-28 melanoma
[10] = test system: NCI-H226 lung
[11] = test system: A498 renal
[12] = test system: DU-145 prostate
[13] = test system: HT29 colon
[14] = test system: KM12 colon
[15] = test system: HCT-15 colon
[16] = test system: SW-620 colon
[17] = test system: T-47D breast
[18] = test system: HOP-62 NSCLC
[19] = test system: MDA-MB-231 breast
[20] = test system: SR leukemia
[21] = test system: UACC-62 melanoma
[22] = test system: MALME-3M melanoma
[23] = test system: IGROV1 ovarian
[24] = test system: ACHN renal
[25] = test system: SF-268 CNS
[26] = test system: RPMI-8226 leukemia
[27] = test system: OVCAR-8 ovarian
[28] = test system: MCF7 breast
[29] = test system: SK-OV-3 ovarian
[30] = test system: SF-539 CNS
[31] = test system: SK-MEL-5 melanoma
[32] = test system: NCI-H522 lung
[33] = test system: MDA-MB-435
[34] = test system: OVCAR-4 ovarian
[35] = test system: SN12C renal
[36] = test system: OVCAR-5 ovarian
[37] = test system: SF-295 CNS
[38] = test system: PC-3 prostate
[39] = test system: RXF 393 renal
[40] = test system: UACC-257 melanoma
[41] = test system: BT-549 breast
[42] = test system: NCI-H23 lung
[43] = test system: A549 NSCLC
[44] = test system: SK-MEL-2 melanoma
[45] = test system: TK-10 renal
[46] = test system: COLO 205 colon
[47] = test system: MOLT-4 leukemia
[48] = test system: NCI-H460 lung
[49] = test system: HS 578T breast
[50] = test system: CAKI-1 renal
[51] = test system: HCT-116 colon
[52] = test system: UO-31 renal
[53] = test system: HL-60(TB) leukemia
[54] = test system: NCI/ADR-RES ovarian
[55] = test system: OVCAR-3 ovarian
[56] = test system: M14 melanoma

Work on `CCCCN1CCN(c2ccc3nc(-c4ccc5nc(-c6ccc(OC)c(OC)c6)[nH]c5c4)[nH]c3c2)CC1` yielded a GI50 [1] of 180 nM, a TGI [1] of 3840 nM and a GI50 [2] of 1520 nM. The TGI [2] was 6640 nM, the GI50 [3] was 2140 nM and the TGI [3] was > 100000 nM. For the same compound, the GI50 [4] was 1040 nM, the TGI [4] was 2400 nM and the GI50 [5] was 1050 nM. The TGI [5] was 2260 nM, the GI50 [6] was 434 nM and the TGI [6] was 2050 nM. The GI50 [7] was 366 nM, the TGI [7] was 1310 nM and the GI50 [8] was 280 nM. The TGI [8] was 1890 nM, the GI50 [9] was 857 nM and the TGI [9] was 2240 nM. The GI50 [10] was 1340 nM, the TGI [10] was 2970 nM and the GI50 [11] was 894 nM. The TGI [11] was 2360 nM, the GI50 [12] was 754 nM and the TGI [12] was 4040 nM. For the same compound, the GI50 [13] was 389 nM, the TGI [13] was 1980 nM and the GI50 [14] was 1370 nM. For the same compound, the TGI [14] was 3130 nM, the GI50 [15] was 3290 nM and the TGI [15] was 30000 nM. For the same compound, the GI50 [16] was 306 nM, the TGI [16] was 1760 nM and the GI50 [17] was 399 nM. It also gave a TGI [17] of 2850 nM, a GI50 [18] of 1060 nM and a TGI [18] of 5070 nM. For the same compound, the GI50 [19] was 1540 nM, the TGI [19] was 3100 nM and the GI50 [20] was 308 nM. For the same compound, the TGI [20] was 1380 nM, the GI50 [21] was 431 nM and the TGI [21] was 1940 nM. For the same compound, the GI50 [22] was 73.4 nM, the TGI [22] was 1270 nM and the GI50 [23] was 1290 nM. It also gave a TGI [23] of 3390 nM, a GI50 [24] of 2270 nM and a TGI [24] of 12400 nM. It also gave a GI50 [25] of 1350 nM, a TGI [25] of 6640 nM and a GI50 [26] of 458 nM. It also gave a TGI [26] of 2120 nM, a GI50 [27] of 435 nM and a TGI [27] of 2170 nM. For the same compound, the GI50 [28] was 196 nM, the TGI [28] was 1560 nM and the GI50 [29] was 1430 nM. For the same compound, the TGI [29] was 6340 nM, the GI50 [30] was 1220 nM and the TGI [30] was 2630 nM. The GI50 [31] was 599 nM, the TGI [31] was 2130 nM and the GI50 [32] was 258 nM. The TGI [32] was 1520 nM, the GI50 [33] was 599 nM and the TGI [33] was 2000 nM. It also gave a GI50 [34] of 334 nM, a TGI [34] of 1880 nM and a GI50 [35] of 738 nM. The TGI [35] was 3660 nM, the GI50 [36] was 2320 nM and the TGI [36] was 6090 nM. For the same compound, the GI50 [37] was 647 nM, the TGI [37] was 3540 nM and the GI50 [38] was 1160 nM. It also gave a TGI [38] of 3290 nM, a GI50 [39] of 917 nM and a TGI [39] of 2150 nM. It also gave a GI50 [40] of 537 nM, a TGI [40] of 2390 nM and a GI50 [41] of 1270 nM. The TGI [41] was 2690 nM, the GI50 [42] was 617 nM and the TGI [42] was 2030 nM. It also gave a GI50 [43] of 1170 nM, a TGI [43] of 3320 nM and a GI50 [44] of 1320 nM. For the same compound, the TGI [44] was 2770 nM, the GI50 [45] was 1120 nM and the TGI [45] was 3440 nM. For the same compound, the GI50 [46] was 173 nM, the TGI [46] was 1360 nM and the GI50 [47] was 903 nM. It also gave a TGI [47] of 3840 nM, a GI50 [48] of 616 nM and a TGI [48] of 1550 nM. The GI50 [49] was 1300 nM, the TGI [49] was 4310 nM and the GI50 [50] was 490 nM. For the same compound, the TGI [50] was 3980 nM, the GI50 [51] was 285 nM and the TGI [51] was 1450 nM. The GI50 [52] was 8040 nM, the TGI [52] was > 39900 nM and the GI50 [53] was 646 nM. For the same compound, the TGI [53] was 2950 nM, the GI50 [54] was > 100000 nM and the TGI [54] was > 100000 nM. The GI50 [55] was 428 nM, the TGI [55] was 1950 nM and the GI50 [56] was 213 nM. The TGI [56] was 1520 nM.
